Experimental data: US20230286973A1, “PROTEIN SECRETION INHIBITORS” (KEZAR LIFE SCIENCES, priority 2020, published 2023)

Tests used:
[1] = test system: PD1-ss+10aa/Gaussia Luciferase; experiment: Dox-Induced PD1-ss-Gluc Assay; format: cell-based; details: 24 hr Dox induction; 293FRT/TO cells; read-out: 24 hr Dox Inducible PD1ssGluc 293FRT/TO: Mean IC50
Outline: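 The cell line was made by transfecting Flp-In 293 T-REx cells with a PD1 signal sequence+10aa–Gaussia luciferase fusion under T-REx control and selecting with hygromycin and blasticidin. Cells were seeded, and next day compound plus doxycycline was added at 37 °C, 5% CO2.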

[2] = test system: TNFα-FL/Gaussia Luciferase; experiment: Dox Induced TNFα-FL-Gluc Assay; format: cell-based; details: for IC50: 24 hr Dox induction, 293FRT/TO cells, read-out: 24 hr Dox Inducible TNFaFLGluc 293FRT/TO: Mean IC50; for 24 hr Dox Inducible TNFaFLGluc 293FRT/TO: TNF/PD1: ratio of TNFaFLGluc IC50 to PD1ssGluc IC50
Outline: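 Cell line: stable Flp-In 293 T-REx, TNFα-FL(1-233)-Gaussia luciferase fusion, T-REx-inducible. Plated day -1; compounds in DMSO/media + doxycycline, 37 °C, 5% CO2. Undefined stereocentres = mixture tested.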

[3] = test system: HER3-ss+4aa/Gaussia Luciferase; experiment: Dox-Induced Her3-ss-Gluc Assay; format: cell-based; details: 24 hr Dox induction; 293FRT/TO cells; read-out: 24 hr Dox Inducible Her3(ss + 4)Gluc 293FRT/TO: Mean IC50
Outline: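 Flp-In 293 T-REx cells, stable HER3-ss+4aa/Gaussia luciferase insert, hygromycin/blasticidin selected; plated day before; compound in DMSO/media + doxycycline; 37° C., 5% CO2.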

[4] = test system: IL-2-FL/Gaussia Luciferase; experiment: Dox Induced IL2-FL-Gluc Assay; format: cell-based; details: for IC50: 24 hr Dox induction, 293FRT/TO cells, read-out: 24 hr Dox Inducible IL2FLGluc 293FRT/TO: Mean IC50; for 24 hr Dox Inducible IL2FLGluc 293FRT/TO: IL2/PD1: ratio of IL2FLGluc IC50 to PD1ssGluc IC50
Outline: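 Stable Flp-In 293 T-REx line, Tet-regulated IL-2 (aa 1-153)–Gaussia luciferase fusion; hygromycin/blasticidin selected. Plated day -1; compound + doxycycline added next day; 37° C, 5% CO2.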

[5] = test system: multiple myeloma cell line NCI-H929; experiment: H929 Cell Viability Assay; format: cell-based, human; details: Homo sapiens, NCI-H929, 48 h, NCI-H929 cells, Celltiter-Glo
Outline: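 Cells in RPMI 1640/10% FBS; compound dilutions in DMSO/media; 48 h, 37° C, 5% CO2; CellTiter-Glo luciferase readout for viability.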

[6] = test system: multiple myeloma cell line U266B1; experiment: U266 Cell Viability Assay; format: cell-based, human; details: Homo sapiens, U-266, 48 h, U266B1 cells, Celltiter-Glo
Outline: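 Luminescent ATP read-out (CellTiter-Glo) after 48 h compound exposure at 37° C., 5% CO2; cells maintained in RPMI 1640/10% FBS/2 mM glutamine/pen-strep, compounds diluted in DMSO/media.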

[7] = Liver Microsome Stability Assay (rat); details: rat liver microsomes, with NADPH, 1.0 uM compound
Procedure: (§1) Stability of a compound was assessed in the presence of liver microsomes from various sources—mouse, rat, monkey and human liver microsomes. 1.0 uM compound, 0.4% DMSO in 0.1 M Potassium Phosphate with 1.0 mg/mL liver microsomes, were incubated at 37° C. with or without 1 mM NADPH. The samples were quenched at 0, and 30 minutes.

[8] = Liver Microsome Stability Assay (mouse); details: mouse liver microsomes, with NADPH, 1.0 uM compound
Procedure: as §1

[9] = Liver Microsome Stability Assay (human); details: human liver microsomes, with NADPH, 1.0 uM compound
Procedure: as §1

[10] = Liver Microsome Stability Assay (monkey); details: monkey liver microsomes, with NADPH, 1.0 uM compound
Procedure: as §1

Structure (SMILES) | IC50 [1] [µM] | IC50 [2] [µM] | 24 hr Dox Inducible TNFaFLGluc 293FRT/TO: TNF/PD1 [2] | IC50 [3] [µM] | IC50 [4] [µM] | 24 hr Dox Inducible IL2FLGluc 293FRT/TO: IL2/PD1 [4] | EC50 [5] [µM] | EC50 [6] [µM] | Liver Microsome Stability (Multiple Species): Rat - % Remaining after 30 min w/NADPH [7] [%] | Liver Microsome Stability (Multiple Species): Mouse - % Remaining after 30 min w/NADPH [8] [%] | Liver Microsome Stability (Multiple Species): Human - % Remaining after 30 min w/NADPH [9] [%] | Liver Microsome Stability (Multiple Species): Monkey - % Remaining after 30 min w/NADPH [10] [%]
CNS(=O)(=O)N1CC(Oc2ccc(N3CCC[C@@H]3c3csc(NC(=O)c4cccn4Cc4ccnc(F)c4)n3)cc2)C1 [Compound A151, (R)-1-((2-fluoropyridin-4-yl)methyl)-N-(4-(1-(4-((1-(N-methylsulfamoyl)azetidin-3-yl)oxy)phenyl)pyrrolidin-2-yl)thiazol-2-yl)-1H-pyrrole-2-carboxamide] | 0.0215 | 0.386 | 17.9 | 0.0431 | 0.059 | 2.7 | 1.39 | > 25 | 38.3 | 15.3 | 7.69 | 0.95
NC(=O)c1cc(C(=O)Nc2nc([C@H]3CCCN3c3ccccc3)cs2)n(Cc2ccnc(F)c2)c1 [Compound A152, (R)-1-((2-fluoropyridin-4-yl)methyl)-N2-(4-(1-phenylpyrrolidin-2-yl)thiazol-2-yl)-1H-pyrrole-2,4-dicarboxamide] | 2.41 | > 25 | >10.4 | 2.13 | 3.28 | 1.4 | 13.2 | > 25 | 24.1 | 48.9 | 44.4 | 28.1
C[S+]([O-])N1CC(Oc2ccc(N3CCC[C@@H]3c3csc(NC(=O)c4cccn4Cc4ccnc(F)c4)n3)cc2)C1 (stereo partly drawn) [Compound A153, 1-((2-fluoropyridin-4-yl)methyl)-N-(4-((2R)-1-(4-((1-(methylsulfinyl)azetidin-3-yl)oxy)phenyl)pyrrolidin-2-yl)thiazol-2-yl)-1H-pyrrole-2-carboxamide] | 0.0374 | 0.877 | 23.5 | 0.0648 | 0.0904 | 2.4 | 1.02 | > 25 | 19.8 | 1.09 | 1.88 | 2.49
CC(=O)N1CCC(Oc2ccc(N3CCC[C@@H]3c3csc(NC(=O)c4cccn4Cc4ccnc(F)c4)n3)nc2)CC1 [Compound A154, (R)-N-(4-(1-(5-((1-acetylpiperidin-4-yl)oxy)pyridin-2-yl)pyrrolidin-2-yl)thiazol-2-yl)-1-((2-fluoropyridin-4-yl)methyl)-1H-pyrrole-2-carboxamide] | 0.0645 | 0.643 | 9.97 | 0.127 | 0.135 | 2.1 | 1.52 | > 25 | 16 | 18.3 | 1.29 | 0.22
